Results reported in PMC6309140, “Synthesis and Evaluation of a New Type of Small Molecule Epigenetic Modulator Containing Imidazo[1,2-b][1,2,4]triazole Motif” (Frontiers in Chemistry, 2018).
Where two headings read alike, the source gives them in different places.

What was measured:
[1] = Water solubility (qualitative remark); assay type: physicochemical; settings: 14b vs. 14a
[2] = system: EGFP reporter gene silenced by DNA methylation (B2-17 cells); experiment: Compound effective assay: derepression of EGFP reporter in B2-17 reporter cells (image-based, titration); assay type: cell-based; settings: for Emax: 72 h, read-out: Maximal RGFP% (maximal percentage of EGFP+ cells in the dose-response curve); for EC50: dose-response of EGFP+ cells, read-out: EC50 (relative half maximal effect concentration); for activity of derepressing the EGFP reporter gene silenced by DNA methylation (in words): compared with hit compound LX-3
From the text: (§1) To identify novel small molecules targeting gene repression, we devised an image-based high-throughput screening system using the engineered HEK 293 F cell (termed as B2-17 cells) as report cell line. A chemical library containing 308,251 small molecules was screened in this system. Purposed for unbiased compound screening, this library had been used in a variety of studies (Sun et al., [2012]; Wang et al., [2013]; Dong et al., [2015]; Li et al., [2016]). Hundred and fifty eight compounds which reactivated reporter genes in more than half of cells were selected as hits. Next, we performed titration experiments for all these hits in the B2-17 cell line. The efficacy of each compound was evaluated by its maximal percentage of EGFP^+ cells in the dose-response curve (maximal RGFP) and relative half maximal effect concentration (EC50). The toxicity of the hits was also tested in parallel, measured by number of viable cells in each treatment. The assay is based on quantitative analysis of ATP, an indicator of metabolically active cells. For each compound, we calculated the relative half maximal growth inhibitory concentration (IC50), based on the abovementioned assay.
Procedure for cell culture and establishment of the reporter cell line were reported in our previously published paper (Li et al., [2018]).
Before plating cells, 384-well plates (ViewPlate, PerkinElmer) were coated with PDL (poly-D-lysine, Sigma). For each well, 1,300 B2-17 cells were plated by using a Matrix Wellmate microplate dispenser (Thermo Scientific). Then, 0.25 μL of compound was added to each well by using a versatile pipetting robot, the Biomek FX workstation (Beckman Coulter), to give a final compound concentration of 5 μM. After treatment for 72 h, the cell nuclei were stained by Hoechst 33342 (Sigma) before imaging.
The cells were imaged with Opera LX (PerkinElmer, three views per well by using 10 x (air) objective lens). Images were analyzed with the Columbus system, the mean percentage of EGFP+ cells (RGFP) was obtained to extrapolate the number of EGFP expressing cells and Hoechst-stained nuclei.
For the titration assay, the positive compounds were diluted in DMSO at concentrations ranging from 0.625 to 4 mM. Then, the B2-17 cells were treated by gradient compound and imaged as described before.
For each compound, a dose-response series was generated by using Origin 6.0 Pro software. The dot plot was fit by a DoseResp curve and then the EC50 was calculated.

HEK 293 F cells = experiment: Viability assays (CellTiter-Glo, ATP); assay type: cell-based; settings: viable cells by ATP quantitation, 3 days incubation, Figure 2 says B2-17 cells, method says HEK 293 F cells, read-out: IC50 (relative half maximal growth inhibitory concentration)
From the text: as §1
HEK 293 F cells were plated in 384-well, flat-bottom, tissue culture dishes (Corning) and treated with compounds, incubated 3 days, and assayed for viability using the CellTiter-Glo Luminescent Cell Viability Assay (Promega) according to the manufacturer's protocol. The […] with an EnSight plate reader (Perkin Elmer). Data were normalized to the untreated control (100% viability). Each treatment was tested in two independent assays, each containing 3 replicates. The titration-viability curves of each compound were also generated by using Origin 6.0 Pro software.

p38 MAPK pathway = system: p38 MAPK pathway; parameters: method as in Li et al., 2018; settings: multiple cell types; ref Li et al., 2018; cited from earlier work

Row | Compound | water solubility (in words) [1] | EC50 ([2]; B2-17 cells, 72 h treatment) | Emax ([2]; B2-17 cells, 72 h treatment) | activity of derepressing the EGFP reporter gene silenced by DNA methylation (in words) [2] | IC50 (HEK 293 F cells; HEK293F, 72 h) | activation of the p38 MAPK pathway (p38 MAPK pathway) | Maximal RGFP% (maximal percentage of EGFP+ cells in the dose-response curve) ([2]; B2-17 cells, 72 h treatment) | IC50 (HEK 293 F cells)
1 | Cc1cc2c(cc1C)n1nc(-c3nccs3)nc1n2CC(=O)c1ccc(Br)cc1 [14b, 1-(4-bromophenyl)-2-(6,7-dimethyl-2-(thiazol-2-yl)-4H-benzo[4,5]imidazo[1,2-b][1,2,4]triazol-4-yl)ethan-1-one] | significantly increased | 3.4 µM | 58% | comparable with the hit compound LX-3 | 2.1 µM |  |  | 
2 | COc1ccccc1-c1nc2n(CC(=O)c3ccc(Br)cc3)c3ccccc3n2n1 [22b, 1-(4-bromophenyl)-2-(2-(2-methoxyphenyl)-4H-benzo[4,5]imidazo[1,2-b][1,2,4]triazol-4-yl)ethan-1-one] |  | 6.8 µM | 21% | decreased significantly or even disappeared | 3.3 µM |  |  | 
3 | O=C(Cn1c2ccccc2n2nc(-c3nccs3)nc12)c1ccc(Br)cc1 [22c, 1-(4-bromophenyl)-2-(2-(thiazol-2-yl)-4H-benzo[4,5]imidazo[1,2-b][1,2,4]triazol-4-yl)ethan-1-one] |  | 4.5 µM | 48% |  | 5.3 µM |  |  | 
4 | Cc1ccsc1-c1nc2n(CC(=O)c3ccc(Br)cc3)c3ccccc3n2n1 [22d, 1-(4-bromophenyl)-2-(2-(3-methylthiophen-2-yl)-4H-benzo[4,5]imidazo[1,2-b][1,2,4]triazol-4-yl)ethan-1-one] |  |  | 19% | disappeared | 12.3 µM |  |  | 
5 | O=C(Cn1c2ccccc2n2nc(-c3ccccn3)nc12)c1ccc(Br)cc1 [22e, 1-(4-bromophenyl)-2-(2-(pyridin-2-yl)-4H-benzo[4,5]imidazo[1,2-b][1,2,4]triazol-4-yl)ethan-1-one] |  |  | 6% |  | 2.8 µM |  |  | 
6 | O=C(Cn1c2ccccc2n2nc(Cc3ccccc3)nc12)c1ccc(Br)cc1 [22f, 2-(2-benzyl-4H-benzo[4,5]imidazo[1,2-b][1,2,4]triazol-4-yl)-1-(4-bromophenyl)ethan-1-one] |  | 6.4 µM | < 22% |  | 4.7 µM |  |  | 
7 | O=C(Cn1c2ccc(Cl)cc2n2nc(-c3cccs3)nc12)c1ccc(Br)cc1 [compound 19, 1-(4-bromophenyl)-2-(7-chloro-2-(thiophen-2-yl)-4H-benzo[4,5]imidazo[1,2-b][1,2,4]triazol-4-yl)ethan-1-one] |  | 14.9 µM | 63% | significantly decreased | 14.3 µM |  |  | 
8 | Cc1ccc(-c2ccc(-c3nc4n(CC(=O)c5ccc(Br)cc5)c5ccccc5n4n3)s2)cc1 [compound 25, 1-(4-bromophenyl)-2-(2-(5-(p-tolyl)thiophen-2-yl)-4H-benzo[4,5]imidazo[1,2-b][1,2,4]triazol-4-yl)ethan-1-one] |  | 29.9 µM | 61% | significant decrease or disappearance | 10.9 µM |  |  | 
9 | O=C(Cn1c2ccccc2n2nc(-c3ccc(Cl)s3)nc12)c1ccc(Br)cc1 [compound 29, 1-(4-bromophenyl)-2-(2-(5-chlorothiophen-2-yl)-4H-benzo[4,5]imidazo[1,2-b][1,2,4]triazol-4-yl)ethan-1-one] |  | 8.9 µM | 83% | little reduction of potency | 13.6 µM |  |  | 
10 | (4-bromophenyl) (2-(thiazol-2-yl)-4H-benzo[4,5] imidazo[1,2-b][1,2,4]triazol-4-yl)methanone [31a] |  |  |  | disappeared |  |  | 4.0% | 7.8 µM

More lines, main results first:

Row | water solubility (in words) [1] | EC50 ([2]; B2-17 cells, 72 h treatment) | Compound | Emax ([2]; B2-17 cells, 72 h treatment) | activity of derepressing the EGFP reporter gene silenced by DNA methylation (in words) [2] | IC50 (HEK 293 F cells; HEK293F, 72 h) | activation of the p38 MAPK pathway (p38 MAPK pathway) | Maximal RGFP% (maximal percentage of EGFP+ cells in the dose-response curve) ([2]; B2-17 cells, 72 h treatment) | IC50 (HEK 293 F cells)
11 |  | 1.9 µM | C=CCc1cc(/C=N/Nc2ccc(Br)cc2)cc(OCC)c1OC [LX-1] | 72% |  | 8.5 µM |  |  | 
12 |  | 2.2 µM | CCc1ccc(CNc2ccc(CNc3ncn[nH]3)cc2)cc1 [LX-2] | 67% |  | 7.8 µM |  |  | 
13 |  | 2.8 µM | O=C(Cn1c2ccccc2n2nc(-c3cccs3)nc12)c1ccc(Br)cc1 [LX-3, 1-(4-bromophenyl)-2-(2-(thiophen-2-yl)-4H-benzo[4,5]imidazo[1,2-b][1,2,4]triazol-4-yl)ethan-1-one] | 79% |  | 5.1 µM | selectively activate the p38 MAPK pathway |  | 
14 |  | 2 µM | O=C(Cn1c2ccccc2c(=O)c2ccccc21)N/N=C/c1ccc(Sc2nc3ccccc3s2)c([N+](=O)[O-])c1 [LX-4] | 68% |  | 4.2 µM | selectively activate the p38 MAPK pathway |  | 
15 |  | 4.1 µM | Cc1n[nH]c(Nc2ccc(/N=N/c3ccccc3)cc2)c1[N+](=O)[O-] [LX-5] | 89% |  | 4.2 µM | selectively activate the p38 MAPK pathway |  | 
16 |  | 4.2 µM | Cc1cc(NC(=O)CSc2nc3ccc(Br)cc3c3nc4ccccc4n23)no1 [LX-6] | 71% |  | 5 µM |  |  | 
17 |  | 1.9 µM | COc1ccc(NC(=O)c2ccco2)cc1NC(=O)c1ccc(-c2cccc([N+](=O)[O-])c2)o1 [LX-7] | 79% |  | 3.2 µM |  |  | 
